{
  "source": "patent EP4512806A1",
  "about": "“MOLECULAR GLUE DEGRADERS AND USES THEREOF” (Mablink Bioscience, priority 2023, dated 2025)",
  "target": "T1, CycK (Homo sapiens, UniProt O75909)",
  "T1 construct": "endogenous in cells; host or cells: JIMT-1",
  "T1 sequence (O75909 whole entry)": "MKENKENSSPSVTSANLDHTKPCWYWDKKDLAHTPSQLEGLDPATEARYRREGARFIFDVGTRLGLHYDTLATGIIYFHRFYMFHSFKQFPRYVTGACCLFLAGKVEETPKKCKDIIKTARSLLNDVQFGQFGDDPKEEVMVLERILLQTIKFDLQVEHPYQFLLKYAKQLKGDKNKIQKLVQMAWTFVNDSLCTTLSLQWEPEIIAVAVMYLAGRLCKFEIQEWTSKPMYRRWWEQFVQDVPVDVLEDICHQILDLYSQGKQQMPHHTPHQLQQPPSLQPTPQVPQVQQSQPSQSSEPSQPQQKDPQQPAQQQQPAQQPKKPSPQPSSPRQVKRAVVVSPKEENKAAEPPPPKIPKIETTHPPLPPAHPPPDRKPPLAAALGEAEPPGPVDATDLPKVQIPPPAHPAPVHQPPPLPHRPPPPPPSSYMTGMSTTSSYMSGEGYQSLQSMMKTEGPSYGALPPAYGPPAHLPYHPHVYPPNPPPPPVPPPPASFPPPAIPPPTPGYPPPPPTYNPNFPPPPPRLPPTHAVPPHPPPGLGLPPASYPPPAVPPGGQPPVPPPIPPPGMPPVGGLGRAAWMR",
  "T1 sequence (Q9NYV4 whole entry partner)": "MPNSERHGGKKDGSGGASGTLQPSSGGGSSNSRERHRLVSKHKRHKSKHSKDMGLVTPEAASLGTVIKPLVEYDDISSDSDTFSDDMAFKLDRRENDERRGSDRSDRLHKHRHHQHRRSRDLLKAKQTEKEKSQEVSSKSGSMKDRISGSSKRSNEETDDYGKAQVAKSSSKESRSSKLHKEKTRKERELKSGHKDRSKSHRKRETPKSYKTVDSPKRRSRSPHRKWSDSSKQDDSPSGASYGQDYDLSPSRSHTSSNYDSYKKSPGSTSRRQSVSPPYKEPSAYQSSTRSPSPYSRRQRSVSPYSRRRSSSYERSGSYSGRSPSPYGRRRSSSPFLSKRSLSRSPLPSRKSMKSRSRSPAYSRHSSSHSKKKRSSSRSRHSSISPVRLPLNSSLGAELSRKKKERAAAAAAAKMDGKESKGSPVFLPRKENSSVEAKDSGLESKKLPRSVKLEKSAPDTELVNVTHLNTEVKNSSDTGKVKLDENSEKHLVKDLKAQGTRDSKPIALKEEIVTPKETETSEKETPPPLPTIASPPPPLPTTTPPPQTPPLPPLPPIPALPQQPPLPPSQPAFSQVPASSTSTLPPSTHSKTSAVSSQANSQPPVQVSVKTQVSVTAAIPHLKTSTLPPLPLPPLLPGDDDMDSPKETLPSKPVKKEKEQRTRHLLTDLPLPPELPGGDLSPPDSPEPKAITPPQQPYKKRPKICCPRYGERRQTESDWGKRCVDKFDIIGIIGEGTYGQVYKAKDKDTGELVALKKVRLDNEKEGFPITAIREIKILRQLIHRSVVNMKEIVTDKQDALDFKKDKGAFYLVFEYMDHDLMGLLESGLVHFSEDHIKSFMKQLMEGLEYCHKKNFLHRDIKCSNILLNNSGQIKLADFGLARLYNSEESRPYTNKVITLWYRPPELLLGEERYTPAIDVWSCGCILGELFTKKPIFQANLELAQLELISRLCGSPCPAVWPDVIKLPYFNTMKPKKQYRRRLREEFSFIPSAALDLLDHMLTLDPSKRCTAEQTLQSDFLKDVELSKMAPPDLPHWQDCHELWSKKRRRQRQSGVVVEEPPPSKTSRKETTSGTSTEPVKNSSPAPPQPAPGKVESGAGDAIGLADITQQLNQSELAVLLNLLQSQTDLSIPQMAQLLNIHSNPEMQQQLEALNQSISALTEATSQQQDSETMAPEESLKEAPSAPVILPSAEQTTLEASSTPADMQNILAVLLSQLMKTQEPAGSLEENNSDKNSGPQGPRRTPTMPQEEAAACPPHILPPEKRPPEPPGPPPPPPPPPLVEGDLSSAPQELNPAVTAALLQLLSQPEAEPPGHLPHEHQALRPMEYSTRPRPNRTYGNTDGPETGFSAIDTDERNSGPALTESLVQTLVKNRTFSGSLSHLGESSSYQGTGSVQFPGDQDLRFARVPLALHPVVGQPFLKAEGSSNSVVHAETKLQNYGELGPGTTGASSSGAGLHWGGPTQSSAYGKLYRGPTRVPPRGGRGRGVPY",
  "T1 sequence (Q16531 whole entry partner)": "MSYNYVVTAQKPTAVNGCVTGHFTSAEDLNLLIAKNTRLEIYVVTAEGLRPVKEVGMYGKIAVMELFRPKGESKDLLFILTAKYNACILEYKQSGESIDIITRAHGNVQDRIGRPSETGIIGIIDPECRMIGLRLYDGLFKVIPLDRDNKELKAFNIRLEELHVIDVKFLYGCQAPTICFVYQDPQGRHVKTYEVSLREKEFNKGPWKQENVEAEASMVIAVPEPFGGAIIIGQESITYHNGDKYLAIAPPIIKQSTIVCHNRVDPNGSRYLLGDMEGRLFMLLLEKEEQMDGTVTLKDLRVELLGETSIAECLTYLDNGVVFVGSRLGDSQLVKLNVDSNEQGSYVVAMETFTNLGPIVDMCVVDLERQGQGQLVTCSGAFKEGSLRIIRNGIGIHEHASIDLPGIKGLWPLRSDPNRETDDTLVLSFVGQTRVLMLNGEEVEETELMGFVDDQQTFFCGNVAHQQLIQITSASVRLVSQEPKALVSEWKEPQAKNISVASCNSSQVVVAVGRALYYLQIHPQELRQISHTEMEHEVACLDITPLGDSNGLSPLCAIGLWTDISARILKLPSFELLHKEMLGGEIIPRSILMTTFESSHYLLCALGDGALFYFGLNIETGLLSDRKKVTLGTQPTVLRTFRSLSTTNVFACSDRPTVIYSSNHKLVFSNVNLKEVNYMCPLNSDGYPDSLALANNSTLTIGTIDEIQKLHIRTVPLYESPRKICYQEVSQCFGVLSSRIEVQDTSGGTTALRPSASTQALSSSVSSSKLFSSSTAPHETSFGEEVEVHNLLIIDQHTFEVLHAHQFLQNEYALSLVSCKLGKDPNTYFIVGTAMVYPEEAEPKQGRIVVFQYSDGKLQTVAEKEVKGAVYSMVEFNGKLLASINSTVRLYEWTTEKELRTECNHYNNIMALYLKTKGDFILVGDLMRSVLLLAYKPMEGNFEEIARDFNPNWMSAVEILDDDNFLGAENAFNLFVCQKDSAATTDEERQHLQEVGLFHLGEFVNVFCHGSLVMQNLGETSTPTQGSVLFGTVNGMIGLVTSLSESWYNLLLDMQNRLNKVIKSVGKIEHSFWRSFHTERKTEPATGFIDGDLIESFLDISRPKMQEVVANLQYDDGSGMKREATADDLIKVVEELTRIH",
  "assay": "CycK protein quantification by Western Blot in JIMT-1 cells",
  "format": "cell-based",
  "experimental": "1×10^6 JIMT-1 cells were plated in 3mL of DMEM/FBS 90:10 (v/v) in 6-well plates and incubated overnight. Cells were treated with the compound 2384 of the invention with or without the proteasome inhibitor MG-132 (MedChemExpress, Cat HY-13259) for 2h. Cells were harvested, and protein were extracted using complete RIPA buffer (RIPA buffer, 1 mM DTT, 1M NaF, 100 mM sodium orthovanadate, phosphatase inhibitor buffer and protease inhibitors) for 1 hour on ice. Lysate were centrifuged 15min at 12 000g at 4°C. and proteins were mixed with 4x Laemmli Sample Buffer (Bio-Rad), heated at 95 °C for 5 mins and separated by SDS PAGE (PROTEAN TGX Stain-Free Gels, Bio-Rad). Proteins were then transferred onto PVDF membrane (iBlot®2 PVDF stacks, Invitrogen) using the iBlot2 device (Invitrogen) and blocked with TBS buffer (Intercept® Blocking Buffer, LI-COR Biosciences). Primary antibodies were incubated overnight at 4°C and secondary antibodies (IRDye Infrared Dyes from LI-COR Biosciences) 1 hour at room temperature. Used primary antibody were: anti-CycK (cat#A301-939A, Bethyl Laboratories, dil. 1:1000) and anti-β-actin (cat#A5441, Sigma-Aldrich, dil. 1:5000). Membranes were scanned using a c500 Imaging System (Azure Biosystems) and densitometric quantification were performed using imaged software. Protein levels were normalized against β-actin.",
  "data": [
    {"compound": "N[C@H]1CC[C@H](Nc2nc(NCc3ccc(-c4ccccn4)cc3)n3ncc(Br)c3n2)CC1", "note": "[Compound 2384]", "values": [
      {"measurement": "CycK protein content", "setting": "1µM final concentration, 2h", "result": "decreased CycK protein content"},
      {"measurement": "minimum effective dose for CycK degradation, times lower than that of CR8", "setting": "2h treatment", "result": "approximately 10 times"},
      {"measurement": "concentration inducing complete CycK degradation", "setting": "2h treatment, decreasing doses", "result": 10, "unit": "nM"}
    ]}
  ]
}
